Test results as given in article PMC10475101, “Selective steroidogenic cytochrome P450 haem iron ligation by steroid-derived isonitriles” (Communications Chemistry, 2023).
Values joined by “and” are separate entries in the source; they are usually repeats but may differ in a detail not shown here. Identical values can stand only once. “Also recorded” adds a separate entry of the source.

Tests used:
CYP17A1 = target: T1, CYP17A1 (Homo sapiens, UniProt P05093); assay: Reduction and reoxidation assay
T1 construct: made in house
T1 sequence (P05093 1-508): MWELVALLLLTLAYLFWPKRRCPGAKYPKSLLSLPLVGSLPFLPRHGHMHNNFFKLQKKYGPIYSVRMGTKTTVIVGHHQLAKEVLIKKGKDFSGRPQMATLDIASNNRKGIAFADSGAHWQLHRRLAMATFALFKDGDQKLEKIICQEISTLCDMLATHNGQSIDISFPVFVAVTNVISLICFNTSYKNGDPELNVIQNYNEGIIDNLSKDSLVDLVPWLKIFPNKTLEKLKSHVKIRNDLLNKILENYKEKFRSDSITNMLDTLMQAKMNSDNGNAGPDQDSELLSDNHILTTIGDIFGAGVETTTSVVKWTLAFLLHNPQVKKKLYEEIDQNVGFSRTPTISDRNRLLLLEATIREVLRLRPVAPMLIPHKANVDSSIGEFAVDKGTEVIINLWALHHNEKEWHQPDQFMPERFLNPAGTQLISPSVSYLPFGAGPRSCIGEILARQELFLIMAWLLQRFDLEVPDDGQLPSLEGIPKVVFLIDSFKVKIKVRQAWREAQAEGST
Method: (§1) Reduction of the 1-bound P450 complex was observed by taking a baseline absorbance reading from 400 to 500 nm using a UV-visible scanning spectrophotometer, of a 1 cm quartz cuvette containing 1 µM P450, with compound 1 at a saturating concentration (i.e., ≥ concentration needed to reach ΔAmax), in binding assay buffer (100 mM potassium phosphate buffer (pH 7.4), 20% glycerol, and 100 mM sodium chloride). A small quantity of sodium dithionite (spatula tip-full) was then added to the cuvette, and the spectra were recorded periodically over time to observe the formation of peaks indicating the reduction (~426 and 456 nm) and subsequent reoxidation (~435 nm) of the complex. The total time course for Fig. 6B was 103 min and 37 s. Numerical data used to generate graphs in Fig. 6 are provided in Supplementary Data 3 in Excel format.
(§2) 185 S2) Ligand binding and inhibition assays
(§3) 186 Reduction and reoxidation assays. Reduction of the isonitrile-bound P450 complex was observed by taking
(§4) 187 a baseline absorbance reading from 400 to 500 nm using a UV-visible scanning spectrophotometer, of a 1cm
(§5) 188 quartz cuvette containing 1 µM P450, with the selected isonitrile compound at a saturating concentration
(§6) 189 (i.e., ≥ concentration needed to reach ΔAmax), in the same buffer used for binding assays (100 mM potassium
(§7) 190 phosphate buffer (pH 7.4), 20% glycerol, and 100 mM sodium chloride). A small quantity of sodium dithionite
(§8) 191 (spatula tip-full) was then added to the cuvette, and the spectra were recorded periodically over time to
(§9) 192 observe the formation of peaks indicating the reduction (~426 and 456 nm) and subsequent reoxidation
(§10) 193 (~435 nm) of the complex. The total time course for Figure 6B was 103 minutes and 37 seconds. […]
(§11) 217 initiated by adding NADPH to a final concentration of 1 mM. After 20 minutes, metabolism was quenched
(§12) 218 by adding 50 µL acetonitrile and placed on ice. The reaction vials were centrifuged at 5000 xg for 5 minutes
(§13) 219 to pellet the precipitated protein, then the supernatant was injected onto a C18 column (Phenomenex, Luna,
(§14) 220 50 x 4.6 mm) for HPLC. Separation on HPLC was obtained using a mobile phase of 45%/55% water/methanol
(§15) 221 for 40 minutes. A standard curve of known product concentrations was used to convert the area under the
(§16) 222 curve to the amount of product produced.
(§17) 224 S3) Crystallization of 1-CYP17A1 complex and X-ray diffraction
(§18) 225 Protein Crystallization and Structure Determination. CYP17A1 was saturated with 3β-formyl-5α
(§19) 226 pregnanolone-20(R)-isonitrile (verified by 430 nm Soret peak) and prepared for crystallization via hanging

CYP2D6 = target: T2, CYP2D6 (Homo sapiens, UniProt P10635, L230D/L231R); assay: Reduction and reoxidation assay
T2 construct: made in house
Method: as §1, §2, §3, §4, §5, §6, §7, §8, §9, §10, §11, §12, §13, §14, §15, §16, §17, §18, §19

[1] = CYP17A1/20-(R)-1 complex reduced by sodium dithionite
[2] = CYP2D6/20-(R)-1 complex reduced by sodium dithionite

T2 sequence (P10635 whole entry L230D/L231R): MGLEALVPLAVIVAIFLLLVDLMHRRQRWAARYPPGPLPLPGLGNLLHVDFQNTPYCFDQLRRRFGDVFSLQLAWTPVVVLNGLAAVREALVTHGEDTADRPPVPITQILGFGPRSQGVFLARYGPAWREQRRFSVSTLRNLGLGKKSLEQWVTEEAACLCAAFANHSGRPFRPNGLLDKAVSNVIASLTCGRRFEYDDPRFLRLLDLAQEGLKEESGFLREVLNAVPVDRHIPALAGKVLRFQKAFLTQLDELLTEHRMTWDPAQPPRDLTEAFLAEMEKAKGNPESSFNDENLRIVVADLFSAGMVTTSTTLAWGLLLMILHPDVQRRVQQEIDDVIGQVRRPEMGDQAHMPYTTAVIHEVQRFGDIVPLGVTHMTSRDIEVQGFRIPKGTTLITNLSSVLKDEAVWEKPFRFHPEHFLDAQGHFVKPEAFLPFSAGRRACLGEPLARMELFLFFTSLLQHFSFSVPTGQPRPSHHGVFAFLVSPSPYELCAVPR

[C-]#[N+][C@H](C)[C@H]1CC[C@H]2[C@@H]3CC[C@H]4C[C@@H](OC=O)CC[C@]4(C)[C@H]3CC[C@]12C [Compound 1, 3β-formyl-5α-pregnanolone-(R)-20-isonitrile]
reoxidation of reduced complex in air (CYP17A1; CYP17A1/20-(R)-1, in air over 105 min): largely resistant to re-oxidation; also recorded: little reoxidation
split Soret after reduction, higher-wavelength maximum (CYP17A1; [1]): 454 nm
split Soret after reduction, lower-wavelength maximum (CYP17A1; [1]): 430 nm and 429.5 nm
Soret peak after reoxidation in air (CYP2D6; CYP2D6/20-(R)-1): ~ 435 nm and 437 nm
reoxidation of reduced complex in air (CYP2D6; CYP2D6/20-(R)-1, same time period): re-oxidizes in air
split Soret after reduction, higher-wavelength maximum (CYP2D6; [2]): 455 nm
split Soret after reduction, lower-wavelength maximum (CYP2D6; [2]): 431 nm
